The text below walks through data of patent US20230365647A1 (priority 2020, published 2023).

For series [1], the target named is T1, PLY (Streptococcus pneumoniae serotype 4, UniProt P0C2J9). To be noted: for inhibition of PLY-induced hemolysis: human.
Series [2] deals with T1, PLY. It counts as binding.
Series [3] concerns the target T2, LLO (Listeria monocytogenes serotype 4a, UniProt B8DGM3). To be noted: for inhibition of LLO-induced hemolysis: human.
In series [4] the target is T1, PLY. It counts as cell-based.
Series [5] has as its target T2, LLO. It counts as binding.
Series [6] deals with human THP-1 derived macrophages. The format is cell-based.
The target of series [7] is T2, LLO. The format is cell-based.
The test system of series [8] is S. pneumoniae T4. The arrangement: species or system zebrafish (Danio renio). To be noted: in vivo.
The test system of series [9] is wild-type pneumococci T4 (TIGR4). The format is cell-based.
Series [10] has as its system pneumococci of type 4 or type 2. It counts as cell-based, Streptococcus pneumoniae.
Series [11] concerns pneumococcal strain T4 (TIGR4 of serotype 4). The format is binding.
Series [12] concerns S. pneumoniae T4. It counts as cell-based, Streptococcus pneumoniae.
Series [13] relates to S. pneumoniae T4R. It counts as cell-based.
Series [14] concerns the target T1, PLY. It counts as cell-based. This is another data set of the same source.
The target in series [15] is T1, PLY. The format is cell-based. This is another data set of the same source.
For series [16], the target named is T1, PLY. The format is cell-based. The source holds these as a separate data set.
Series [17] has as its system pneumococci, type 2 (D39) or type 4 (T4). It counts as cell-based, Streptococcus pneumoniae.
The conditions of series [18]: mouse, in vivo.

Where two headings read alike, the source gives them in different places. Where no end group is shown, it is not given here.

Regarding DCTSAGRSDGWLW [CP1], the “PLY-induced hemolysis, residual red blood cell pellet” value in [1] is reported as “Complete hemolysis”. Besides, the “binding to PLY (ELISA)” value in series [2] was “only background levels of binding”. The “LLO-induced hemolysis, residual red blood cell pellet” value in [3] is “Complete hemolysis”.

Turning to YENWAYGEPNNYQ [P3, YENWAYGEPNNYQ], in series [1], the “PLY-induced hemolysis, increasing concentrations of the peptides” value is “dose-dependently inhibited” and the “inhibition of PLY-induced hemolysis” value is “up to 50%”. Further, in series [4] (18 h), the “cell death of macrophages induced by PLY (LDH release)” value is given as “significantly reduced cell death”. Moreover, the “binding to LLO (ELISA)” value in series [5] is listed as “bound dose-dependently”. Also, in series [6], the “release of IL-8” value is given as “significantly reduced”, the “release of IL-12” value was “significantly reduced” and the “release of TNF-α” value is listed as “significantly reduced”. In addition, the “cell death of macrophages induced by LLO (LDH release)” value in [7] (18 h) is given as “significantly reduced cell death”. Moreover, in [2], the “binding to PLY (ELISA)” value is “bind dose-dependently”. Also, the “inhibition of LLO-induced hemolysis” value in [3] was around 35%.

For the sequence LVGNIEQNEHSVI [CP2], in [8], the “survival of infected zebrafish embryos” value is on record as “did not show any significant effect”. In [1], the “PLY-induced hemolysis, residual red blood cell pellet” value is recorded as “Complete hemolysis”. Besides, in series [9], the “number of invading bacteria in lung epithelial model (CFU)” value is on record as “not”. The “cell death of macrophages induced by PLY (LDH release)” value in series [4] is reported as “no significant effect”. In addition, the “intracellular bacteria in DCs (fluorescence microscopy)” value in series [10] is on record as “not”. For the same sequence, in series [7], the “cell death of macrophages induced by LLO (LDH release)” value is listed as “no significant effect”. The “binding to PLY (ELISA)” value in [2] is recorded as “only background levels of binding”. The “binding of FITC-labelled peptide to PLY-producing strain T4” value in series [11] is “did not show any binding”. The “hemolytic activity of pneumococcal strain T4” value in series [12] is reported as “no effect”. In series [13], the “co-localization of intracellular T4R with autophagy marker LC3B” value is reported as “did not promote co-localization”. In series [14], the “LDH release into the supernatant of lung tissue model” value is “did not show any significant reduction”. In series [15], the “release of IL-8 in lung tissue model” value is reported as “not” and the “release of TNF-α in lung tissue model” value is listed as “not”. Also, the “protection of THP-1 macrophages from PLY cytolysis (live/dead stain)” value in [16] was “not”. Moreover, the “LLO-induced hemolysis, residual red blood cell pellet” value in series [3] is given as “Complete hemolysis”. The “number of intracellular bacteria in DCs (CFU)” value in series [17] was “did not show any significant difference”.

Take FTWSDGSPVSYEN [P2, FTWSDGSPVSYEN]: the “inhibition of PLY-induced hemolysis” value in series [1] is reported as “up to 50%”. Also, in series [18], the clinical symptoms result was “did not develop any clinical symptoms” and the “toxicity by lung histology analysis” value is “not toxic”. Also, the “inhibition of LLO-induced hemolysis” value in series [3] is on record as around 35%.
